In US12686854B2, “Method for enhancing secretory function of mesenchymal stem cells and application thereof” (SHANDONG UNIVERSITY, priority 2020, dated 2026):

Columns and labels:
[1] = test system: PI3K-AKT pathway; assay: In vitro ovary culture with VCD injury, Western blot of p-AKT and AKT; format: cell-based; conditions: PD4 mouse ovaries, 4 days in vitro culture, VCD 30 μM injury
Protocol: • S1. The concentrated conditioned medium was collected as described in Example 1. • S2. The solution for dissecting ovary containing 10% FBS and 1% penicillin-streptomycin was prepared in L15 medium. • S3. Ovarian culture preparation was performed. The medium of control group, VCD (30 μM) group, VCD+MSC-CM group and VCD+HA/MSC-CM group were prepared, and the embedded culture chamber was placed in 6-well plate containing 1.5 mL medium per well for 2 hours. • S4. The ovaries of postnatal day 4 (PD4) mice were isolated in freshly prepared dissecting solution under stereoscope. The surrounding tissues and ovarian capsule were gently peeled off, which should move quickly and not damage ovarian tissues. • S5. The obtained ovaries were washed three times with dissecting solution and transferred to an operation table as soon as possible. Before the ovaries were placed in the chambers of each group, the ovaries were washed three times with the corresponding medium of each group. After washing, they were placed in the middle of the culture chambers of each group and placed at intervals. The solution was changed on the second day. After 4 days of in vitro culture, the ovarian tissues were collected to extract protein. • S6. The changes of the expression of p-AKT and AKT protein were detected by Western blot.

[2] = test system: germ cells in mouse ovaries; assay: In vitro ovary culture with VCD injury, DDX4 immunohistochemical staining of germ cells; format: cell-based; conditions: 8 days in vitro culture

C1CC2OC2CC1C1CO1 (stereo not drawn) [VCD, 4-vinylcyclonhexene diepoxide]
expression level of p-AKT [1]: decreased significantly
ovarian volume ([2]; VCD 30 μM): decreased
number of germ cells (DDX4 staining) ([2]; VCD 30 μM injury): decreased significantly
